Assay results from PubChem BioAssay (NCI).
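Cells were grown in 96-well plates and exposed to each compound for 48 hours at five concentrations; endpoints were interpolated linearly between bracketing concentrations, or set to the highest concentration if not reached. The concentration for full growth arrest is given as TGI.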

Columns and labels:
Test in all cases: NCI tumour cell line growth inhibition, 48 h
LXFL 529 NSCLC = tested on: LXFL 529 NSCLC
DLD-1 colon = tested on: DLD-1 colon
DMS 273 small cell lung = tested on: DMS 273 small cell lung
HOP-18 NSCLC = tested on: HOP-18 NSCLC
DMS 114 small cell lung = tested on: DMS 114 small cell lung
SN12K1 renal = tested on: SN12K1 renal
P388 leukemia = tested on: P388 leukemia
P388/ADR leukemia = tested on: P388/ADR leukemia
M19-MEL melanoma = tested on: M19-MEL melanoma
XF 498 CNS = tested on: XF 498 CNS

Structure (SMILES) | TGI (LXFL 529 NSCLC) [nM] | TGI (DLD-1 colon) [nM] | TGI (DMS 273 small cell lung) [nM] | TGI (HOP-18 NSCLC) [nM] | TGI (DMS 114 small cell lung) [nM] | TGI (SN12K1 renal) [nM] | TGI (P388 leukemia) [nM] | TGI (P388/ADR leukemia) [nM] | TGI (M19-MEL melanoma) [nM] | TGI (XF 498 CNS) [nM]
c1c(N2CCOCC2)ssc1=[N+]1CCOCC1 | > 100000 | > 100000 | > 100000 | > 100000 | > 100000 | – | – | – | – | –
CC(=O)OC1CC2(O)C(CCC3(C)C(c4ccc(=O)oc4)CCC32O)C2(C)C1=CC(O)C1OC12 (configuration not stated) | – | 179 | 135 | 385 | 33.5 | 139 | 154000 | 250000 | 245 | 201
CCCO/N=[N+](\[O-])N(CC)CC | > 100000 | – | > 100000 | – | – | – | – | – | – | > 100000
